Assay results as given in the supplement of paper PMC11451515.

Test system: P12-Ichikawa
Assay: cell viability relative to DMSO control; higher = less cytotoxic
Conditions: 48 h
Method in brief: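 NOMO1, SEM and P12-Ichikawa leukemia cells spent at least four passages adapting to each medium before use. They were seeded at 500 cells/well (NOMO1, SEM) or 1000 cells/well (P12-Ichikawa) in 5 μl in 1536-well plates and pin-dosed with library compounds in DMSO at 11 threefold steps from 47 μM down to 0.79 nM. After 48 h at 37°C, CellTiter-Glo One luminescence was read. Viability is reported as a percentage of the DMSO wells on each plate, with cell-free wells as background.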

[1] = RPMI 5 mM glucose + 10% dialyzed FBS, 0.000781 µM
[2] = RPMI 5 mM glucose + 10% dialyzed FBS, 0.00234 µM
[3] = RPMI 5 mM glucose + 10% dialyzed FBS, 0.00702 µM
[4] = RPMI 5 mM glucose + 10% dialyzed FBS, 0.0211 µM
[5] = RPMI 5 mM glucose + 10% dialyzed FBS, 0.0632 µM
[6] = RPMI 5 mM glucose + 10% dialyzed FBS, 0.19 µM
[7] = RPMI 5 mM glucose + 10% dialyzed FBS, 0.569 µM
[8] = RPMI 5 mM glucose + 10% dialyzed FBS, 1.71 µM
[9] = RPMI 5 mM glucose + 10% dialyzed FBS, 5.12 µM
[10] = RPMI 5 mM glucose + 10% dialyzed FBS, 15.4 µM
[11] = RPMI 5 mM glucose + 10% dialyzed FBS, 46.1 µM
[12] = HPLM + 10% dialyzed FBS, 0.000781 µM
[13] = HPLM + 10% dialyzed FBS, 0.00234 µM
[14] = HPLM + 10% dialyzed FBS, 0.00702 µM
[15] = HPLM + 10% dialyzed FBS, 0.0211 µM
[16] = HPLM + 10% dialyzed FBS, 0.0632 µM
[17] = HPLM + 10% dialyzed FBS, 0.19 µM
[18] = HPLM + 10% dialyzed FBS, 0.569 µM
[19] = HPLM + 10% dialyzed FBS, 1.71 µM
[20] = HPLM + 10% dialyzed FBS, 5.12 µM
[21] = HPLM + 10% dialyzed FBS, 15.4 µM
[22] = HPLM + 10% dialyzed FBS, 46.1 µM
[23] = RPMI 5 mM glucose + 10% FBS, 0.000781 µM
[24] = RPMI 5 mM glucose + 10% FBS, 0.00234 µM
[25] = RPMI 5 mM glucose + 10% FBS, 0.00702 µM
[26] = RPMI 5 mM glucose + 10% FBS, 0.0211 µM
[27] = RPMI 5 mM glucose + 10% FBS, 0.0632 µM
[28] = RPMI 5 mM glucose + 10% FBS, 0.19 µM
[29] = RPMI 5 mM glucose + 10% FBS, 0.569 µM
[30] = RPMI 5 mM glucose + 10% FBS, 1.71 µM
[31] = RPMI 5 mM glucose + 10% FBS, 5.12 µM
[32] = RPMI 5 mM glucose + 10% FBS, 15.4 µM
[33] = RPMI 5 mM glucose + 10% FBS, 46.1 µM

SMILES	cell viability [1] [%]	cell viability [2] [%]	cell viability [3] [%]	cell viability [4] [%]	cell viability [5] [%]	cell viability [6] [%]	cell viability [7] [%]	cell viability [8] [%]	cell viability [9] [%]	cell viability [10] [%]	cell viability [11] [%]	cell viability [12] [%]	cell viability [13] [%]	cell viability [14] [%]	cell viability [15] [%]	cell viability [16] [%]	cell viability [17] [%]	cell viability [18] [%]	cell viability [19] [%]	cell viability [20] [%]	cell viability [21] [%]	cell viability [22] [%]	cell viability [23] [%]	cell viability [24] [%]	cell viability [25] [%]	cell viability [26] [%]	cell viability [27] [%]	cell viability [28] [%]	cell viability [29] [%]	cell viability [30] [%]	cell viability [31] [%]	cell viability [32] [%]	cell viability [33] [%]
COC1=CC=C2CN(C)CC[C@@]34\C=C/[C@H](O)C[C@@H]3OC1=C24	121	124	118	117	130	120	119	121	82.6	102	111	–	–	–	–	–	–	–	–	–	–	–	–	–	–	–	–	–	–	–	–	–	–
CCOC(=O)/C=C/[C@H](C[C@@H]1CCNC1=O)NC(=O)[C@@H](CC(=O)[C@@H](NC(=O)c1cc(C)on1)C(C)C)Cc1ccc(F)cc1	112	106	118	80.2	111	119	115	128	119	124	118	122	115	121	87.7	130	127	126	117	121	122	117	114	122	130	76.8	135	135	134	136	121	120	119
CCN(c1ccccc1)c1cc(NC)[n+](C)c(C)n1	114	109	112	116	111	118	117	117	111	104	106	108	111	108	106	111	114	107	107	119	102	101	112	114	120	114	118	106	114	105	108	109	98.9
N=C1N[C@H]2[C@H](CS[C@H]2CCCCC(=O)O)N1	114	124	111	129	117	126	121	117	126	126	116	108	116	110	118	124	119	130	114	123	119	113	123	130	121	134	135	131	125	126	135	126	139
CN1CCN(CCCN2c3ccccc3Sc3ccc(C(F)(F)F)cc32)CC1	94.8	105	99.6	104	106	105	112	123	115	93.8	39.4	100	105	105	108	106	111	117	119	111	42	12.4	101	108	109	109	119	119	113	116	112	34.1	13.8
NC(=O)Nc1cc(-c2cccc(F)c2)sc1C(=O)N[C@H]1CCCNC1	–	–	–	–	–	–	–	–	–	–	–	121	124	125	122	130	112	111	74	13.4	7.94	6.66	–	–	–	–	–	–	–	–	–	–	–
Cn1cc(C[C@@H](N)C(=O)O)c2ccccc21	91.3	101	100	98.3	105	106	96.5	100	95.8	93	91.9	103	109	106	104	105	109	105	102	100	98.2	97.2	98.8	107	104	101	99.6	106	107	97.1	99.8	100	87.1
CC(C)Cc1ccc(C(C)C(=O)O)cc1 (stereo not given)	86.7	91.6	83.9	83.2	88.3	89.8	79.1	81.7	80.9	84.5	95.6	86.1	86	92.1	90	91.9	98.2	92.8	95.4	96.6	92.4	95.4	90.4	90.9	84.5	85	87.5	89.2	81.8	90.3	82.1	77.6	81
CC(C)OC1=CC=C2C(=C1)O\C=C(/C2=O)C3=CC=CC=C3	127	121	122	116	132	110	122	115	119	92.4	110	118	126	122	128	120	119	124	117	113	118	112	123	118	127	128	131	122	121	123	115	110	113
CC(NCCc1ccc(O)cc1)C(O)c1ccc(O)cc1 (stereo not given)	107	105	113	109	115	111	107	105	102	97	90.6	106	109	116	113	117	112	111	103	109	106	100	114	120	122	115	110	114	125	116	120	99	111
COc1cccc2c1CCCC2CCCN1CCN(C2CCCCC2)CC1 (stereo not given)	95.7	102	114	111	116	110	111	103	105	93.4	66.2	104	110	97.7	112	106	113	111	110	109	103	81.5	111	99.9	117	114	127	119	116	122	114	99.5	62.9
CCOC(=O)Nc1ccc(NCc2ccc(F)cc2)nc1N	115	101	101	104	111	111	112	103	104	101	100	114	114	110	113	120	117	109	105	96.5	94.6	107	107	116	116	125	118	111	110	102	91	108	99.8
COc1cc(O)c2c(c1)C(=O)c1cc(C)cc(O)c1C2=O	–	–	–	–	–	–	–	–	–	–	–	124	120	122	118	122	119	112	114	110	98.9	41.7	121	118	121	119	121	116	113	113	120	97.6	45.2
COC1=CC=C(C=C1O)C/2=C/C(=O)C3=C(O2)C=C(O[C@@H]4O[C@H](CO[C@@H]5O[C@@H](C)[C@H](O)[C@@H](O)[C@H]5O)[C@@H](O)[C@H](O)[C@H]4O)C=C3O	116	117	117	125	122	125	126	130	118	121	127	108	112	121	121	115	116	118	118	116	123	122	113	113	118	119	137	116	126	115	123	113	131
CCOC1=CC=CC=C1N\2C(=O)C3=C(C=CC=C3)\N=C2C(C)N4CCN(CC4)C(=O)COC5=CC=C(Cl)C=C5 (stereo not given)	–	–	–	–	–	–	–	–	–	–	–	121	120	116	115	107	111	72.3	15.9	8.63	6.31	4.74	121	126	119	110	117	111	94.4	51.8	9.87	5.31	4.69
C#CCN[C@@H]1CCc2ccccc21.CS(=O)(=O)O	89.5	91.9	94.9	88.8	101	99.1	97	85.5	83.6	83.7	83.5	105	100	91	105	103	95	98.2	100	91.2	93.5	86.4	97.6	93.6	90.5	95.2	101	103	93.7	85.6	95.9	92.9	84.2
OCCn1cc(-c2cnc3nnn(Cc4ccc5ncccc5c4)c3n2)cn1	108	122	114	118	122	115	115	109	112	96.9	88.6	116	116	116	110	112	110	110	107	103	98.9	75.4	108	115	114	107	106	122	115	101	100	99.6	86.5
